# Laboratory results taken from US8293773B2, “1, 2, 3-triazole derivatives as new cannabinoid-1 receptor antagonists” (National Tsing Hua University, priority 2008, dated 2012).
# How the values were obtained:
# human CB2 receptor = target: T1, human CB2 receptor (Homo sapiens, UniProt P34972); experiment: competitive radioligand binding assay, displacement of [3H]CP55,940, CB2
# T1 construct: expressed in transfected cells; membrane-enriched fractions
# Protocol: (§1) In addition, the affinity of test compounds of this invention toward CB1 and CB2 receptors was determined by competitive radioligand binding assays in vitro. This method differentiates the binding strength between compounds by their abilities in displacing a receptor-specific radioactive ligand. […] The readings of the radioactivity retained allow further analysis of receptor binding, and assist in predictions of the pharmacological activities of the test compounds.
# (§2) In the assays, CB1 receptors are from human CB1 stably expressed cell lines, and CB2 receptors are from human CB2 stably expressed cell lines. For purification of membrane-enriched fractions, cells were scraped off from the culture dishes in ice-cold buffer A (50 mM Tris, 5 mM MgCl2, 2.5 mM EDTA, pH 7.4, 10% sucrose) with 1 mM PMSF. After sonication, the membrane-enriched fractions were centrifuged for 15 minutes at 2,000×g at 4° C. The supernatant was centrifuged again for 30 minutes at 43,000×g at 4° C. The final pellet was re-suspended in buffer A and stored at −80° C. The protein concentration of the purified membrane was determined by the Bradford method as described by the manual provided by Bio-Rad Laboratories, Inc., Hercules, Calif.
# (§3) During the receptor binding experiments, 0.2˜8 μg of membrane fractions were incubated with 0.75 nM [^3H]CP55,940 and a test compound in the incubation buffer of 50 mM Tris-HCl, 5 mM MgCl2, 1 mM EDTA, 0.3% BSA, pH 7.4. The non-specific binding was determined by using 1 μM of CP55,940. The mixture was incubated for 1.5 hours at 30° C. in Multiscreen microplates (Millipore, Billerica, Mass.). At the completion of the incubation, the reaction was terminated by Manifold filtration and washed with ice-cold wash buffer (50 mM Tris, pH 7.4, 0.25% BSA) four times. The radioactivity bound to the filters was measured by Topcount (Perkin Elmer Inc.).
# human CB1 receptor = target: T2, human CB1 receptor (Homo sapiens, UniProt P21554); experiment: competitive radioligand binding assay, displacement of [3H]CP55,940, CB1; conditions: for IC50: displacement of specific [3H]-CP55940 binding in HEK 293 cells stably transfected with human CB1 receptor
# T2 construct: expressed in transfected cells; membrane-enriched fractions
# Protocol: as §1, §2, §3
# [1] = Table 2, percent inhibition at 10 μM
# T2 sequence (P21554 whole entry): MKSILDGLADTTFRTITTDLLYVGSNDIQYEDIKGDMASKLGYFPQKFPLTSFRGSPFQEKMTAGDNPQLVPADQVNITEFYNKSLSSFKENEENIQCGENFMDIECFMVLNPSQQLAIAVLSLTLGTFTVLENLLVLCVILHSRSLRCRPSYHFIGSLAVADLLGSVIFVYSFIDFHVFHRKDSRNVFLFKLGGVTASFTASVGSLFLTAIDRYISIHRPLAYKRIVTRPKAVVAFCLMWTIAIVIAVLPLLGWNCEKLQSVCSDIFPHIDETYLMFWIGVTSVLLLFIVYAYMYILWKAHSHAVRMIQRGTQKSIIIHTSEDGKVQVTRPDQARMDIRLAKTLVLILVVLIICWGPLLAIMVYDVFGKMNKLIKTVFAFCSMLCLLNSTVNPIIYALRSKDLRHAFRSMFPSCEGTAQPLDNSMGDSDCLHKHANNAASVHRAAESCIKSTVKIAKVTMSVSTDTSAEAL
# T1 sequence (P34972 whole entry): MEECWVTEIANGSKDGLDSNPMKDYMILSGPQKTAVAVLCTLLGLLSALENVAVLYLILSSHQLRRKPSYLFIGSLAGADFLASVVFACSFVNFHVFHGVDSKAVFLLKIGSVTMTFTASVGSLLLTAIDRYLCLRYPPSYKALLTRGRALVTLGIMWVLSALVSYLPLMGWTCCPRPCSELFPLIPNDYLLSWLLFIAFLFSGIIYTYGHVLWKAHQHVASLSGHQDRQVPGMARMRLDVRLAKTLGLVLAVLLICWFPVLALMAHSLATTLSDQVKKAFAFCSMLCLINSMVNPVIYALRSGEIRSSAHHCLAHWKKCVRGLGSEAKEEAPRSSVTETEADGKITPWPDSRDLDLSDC
SMILES,IC50 (human CB2 receptor; cells printed in μM),inhibition at 10 µM (human CB1 receptor; [1]),IC50 (human CB1 receptor),IC50 (human CB2 receptor; human CB2 stably expressed cell line membranes),"CB1 Inhibition (%) (10 μM) (human CB1 receptor; Table 2, percent inhibition at 10 μM, 10 µM)"
CCCCOC(=O)Cn1nc(-c2ccc(Cl)cc2Cl)c(-c2ccc(Cl)cc2Cl)n1 [Compound 111],> 10 µM,90.3%,1.17 ± 0.263 µM,,
O=C(Cn1nc(-c2ccc(Cl)cc2Cl)c(-c2ccc(Cl)cc2Cl)n1)N1CCCCC1 [Compound 120],,93.7%,,5.9 ± 0.764 µM,
O=C(Cn1nc(-c2ccc(Cl)cc2Cl)c(-c2ccc(Cl)cc2Cl)n1)NCc1ccccc1 [Compound 122],> 10 µM,99.3%,0.0669 ± 0.0089 µM,,
O=C(Cn1nc(-c2ccc(Cl)cc2Cl)c(-c2ccc(Cl)cc2Cl)n1)NC1CCCCC1 [Compound 125],> 10 µM,,0.144 ± 0.11 µM,,91.40%
O=C(Cn1nc(-c2ccc(Cl)cc2)c(-c2ccc(Cl)cc2Cl)n1)NN1CCCCC1 [Compound 142],,76.1%,1.85 ± 1.38 µM,,
C[C@H](NC(=O)Cn1nc(-c2ccc(Cl)cc2)c(-c2ccc(Cl)cc2Cl)n1)C(O)(c1ccccc1)c1ccccc1 [Compound 143],,80%,0.789 ± 0.202 µM,,
CC(C)[C@H](NC(=O)Cn1nc(-c2ccc(Cl)cc2)c(-c2ccc(Cl)cc2Cl)n1)C(O)(c1ccccc1)c1ccccc1 [Compound 144],,89.5%,0.14 ± 0.0631 µM,,
Cc1ccc(CNC(=O)Cn2nc(-c3ccc(Cl)cc3Cl)c(-c3ccc(Cl)cc3Cl)n2)cc1 [Compound 145],,95%,0.252 ± 0.0751 µM,,
COc1ccc(CNC(=O)Cn2nc(-c3ccc(Cl)cc3Cl)c(-c3ccc(Cl)cc3Cl)n2)cc1 [Compound 146],> 10 µM,94.8%,0.0819 ± 0.0442 µM,,
O=C(Cn1nc(-c2ccc(Cl)cc2Cl)c(-c2ccc(Cl)cc2Cl)n1)Nc1ccccc1 [Compound 147],> 10 µM,99.5%,0.251 ± 0.0881 µM,,
Cc1ccccc1CNC(=O)Cn1nc(-c2ccc(Cl)cc2)c(-c2ccc(Cl)cc2Cl)n1 [Compound 148],,94.5%,0.592 ± 0.302 µM,,
COc1ccc(CNC(=O)Cn2nc(-c3ccc(Cl)cc3)c(-c3ccc(Cl)cc3Cl)n2)cc1 [Compound 149],,78.2%,0.684 ± 0.428 µM,,
O=C(Cn1nc(-c2ccc(Cl)cc2)c(-c2ccc(Cl)cc2Cl)n1)NCc1ccc(Cl)cc1 [Compound 150],,91.4%,0.704 ± 0.283 µM,,
O=C(Cn1nc(-c2ccc(Cl)cc2)c(-c2ccc(Cl)cc2Cl)n1)NCc1cccc2c1OCO2 [Compound 151],,61.8%,5.97 ± 2.6 µM,,
O=C(Cn1nc(-c2ccc(Cl)cc2)c(-c2ccc(Cl)cc2Cl)n1)NCc1ccc(Cl)cc1Cl [Compound 152],,90.5%,0.711 ± 0.175 µM,,
O=C(Cn1nc(-c2ccc(Cl)cc2)c(-c2ccc(Cl)cc2Cl)n1)NCc1ccc(Cl)c(Cl)c1 [Compound 153],,87%,1.06 ± 0.656 µM,,
CC(NC(=O)Cn1nc(-c2ccc(Cl)cc2)c(-c2ccc(Cl)cc2Cl)n1)c1ccccc1 (centres unmarked) [Compound 154],,95.2%,0.772 ± 0.446 µM,,
Cc1cccc(CNC(=O)Cn2nc(-c3ccc(Cl)cc3)c(-c3ccc(Cl)cc3Cl)n2)c1 [Compound 155],,85%,0.473 ± 0.3 µM,,
COc1cccc(CNC(=O)Cn2nc(-c3ccc(Cl)cc3)c(-c3ccc(Cl)cc3Cl)n2)c1 [Compound 156],,69.5%,,,
O=C(Cn1nc(-c2ccc(Cl)cc2)c(-c2ccc(Cl)cc2Cl)n1)NCc1ccc(F)cc1F [Compound 157],,95.2%,0.217 ± 0.0866 µM,,
O=C(Cn1nc(-c2ccc(Cl)cc2)c(-c2ccc(Cl)cc2Cl)n1)NCc1ccccc1C(F)(F)F [Compound 158],,92.5%,0.302 ± 0.133 µM,,

SMILES,IC50 (human CB2 receptor; cells printed in μM),inhibition at 10 µM (human CB1 receptor; [1]),IC50 (human CB1 receptor),IC50 (human CB2 receptor; human CB2 stably expressed cell line membranes),"CB1 Inhibition (%) (10 μM) (human CB1 receptor; Table 2, percent inhibition at 10 μM, 10 µM)"
O=C(Cn1nc(-c2ccc(Cl)cc2)c(-c2ccc(Cl)cc2Cl)n1)NCc1ccccc1Cl [Compound 159],,87.3%,0.365 ± 0.16 µM,,
O=C(Cn1nc(-c2ccc(Cl)cc2)c(-c2ccc(Cl)cc2Cl)n1)NCc1ccccc1F [Compound 160],> 10 µM,88.2%,0.262 ± 0.184 µM,,
O=C(Cn1nc(-c2ccc(Cl)cc2)c(-c2ccc(Cl)cc2Cl)n1)NCc1cccc(F)c1 [Compound 161],,87.7%,0.529 ± 0.144 µM,,
O=C(Cn1nc(-c2ccc(Cl)cc2)c(-c2ccc(Cl)cc2Cl)n1)NCc1ccc(F)cc1 [Compound 162],> 10 µM,90.5%,0.449 ± 0.0679 µM,,
O=C(Cn1nc(-c2ccc(Cl)cc2)c(-c2ccc(Cl)cc2Cl)n1)NC1CCc2ccccc21 (centres unmarked) [Compound 163],,76.6%,2.07 ± 0.186 µM,,
COc1ccc(CNC(=O)Cn2nc(-c3ccc(Cl)cc3)c(-c3ccc(Cl)cc3Cl)n2)cc1OC [Compound 164],,82.1%,2.83 ± 0.378 µM,,
O=C(Cn1nc(-c2ccc(Cl)cc2)c(-c2ccc(Cl)cc2Cl)n1)NCc1cc(F)ccc1F [Compound 165],> 10 µM,89.8%,0.152 ± 0.071 µM,,
O=C(Cn1nc(-c2ccc(Cl)cc2)c(-c2ccc(Cl)cc2Cl)n1)NCc1ccc(F)c(F)c1 [Compound 166],,88.3%,,,
CC1CCC(NC(=O)Cn2nc(-c3ccc(Cl)cc3)c(-c3ccc(Cl)cc3Cl)n2)CC1 (centres unmarked) [Compound 167],,92.1%,,,
O=C(Cn1nc(-c2ccc(Cl)cc2)c(-c2ccc(Cl)cc2Cl)n1)NCc1ccccc1 [Compound 168],> 10 µM,93.9%,0.204 ± 0.0781 µM,,
O=C(Cn1nc(-c2ccc(Cl)cc2Cl)c(-c2ccc(Cl)cc2Cl)n1)NCc1cccc(F)c1 [Compound 170],> 10 µM,,0.0257 ± 0.0029 µM,,
O=C(Cn1nc(-c2ccc(Cl)cc2Cl)c(-c2ccc(Cl)cc2Cl)n1)NCc1ccc(F)cc1 [Compound 171],> 10 µM,,0.0116 ± 0.0034 µM,,
O=C(Cn1nc(-c2ccc(Cl)cc2Cl)c(-c2ccc(Cl)cc2Cl)n1)NCc1ccccc1F [Compound 173],,,0.0193 ± 0.0035 µM,,
O=C(Cn1nc(-c2ccc(Cl)cc2Cl)c(-c2ccc(Cl)cc2Cl)n1)NCc1cc(F)ccc1F [Compound 184],> 10 µM,,0.022 ± 0.0061 µM,,
Cc1cccc(CNC(=O)Cn2nc(-c3ccc(Cl)cc3Cl)c(-c3ccc(Cl)cc3Cl)n2)c1 [Compound 188],> 10 µM,,0.0517 ± 0.0155 µM,,
O=C(Cn1nc(-c2ccc(Cl)cc2Cl)c(-c2ccc(Cl)cc2Cl)n1)NCc1ccc(F)cc1F [Compound 190],> 10 µM,,0.0459 ± 0.0184 µM,,
O=C(Cn1nc(-c2ccc(Cl)cc2Cl)c(-c2ccc(Cl)cc2Cl)n1)NCc1ccccc1Cl [Compound 191],> 10 µM,,0.0489 ± 0.012 µM,,
O=C(Cn1nc(-c2ccc(Cl)cc2Cl)c(-c2ccc(Cl)cc2Cl)n1)NCc1ccc(Cl)cc1 [Compound 192],> 10 µM,,0.0648 ± 0.0105 µM,,
COc1ccccc1CNC(=O)Cn1nc(-c2ccc(Cl)cc2Cl)c(-c2ccc(Cl)cc2Cl)n1 [Compound 196],> 10 µM,,0.125 ± 0.0231 µM,,
O=C(Cn1nc(-c2ccc(Cl)cc2Cl)c(-c2ccc(Cl)cc2Cl)n1)NCc1ccc(F)c(F)c1 [Compound 198],> 10 µM,,0.0829 ± 0.007 µM,,
CC(NC(=O)Cn1nc(-c2ccc(Cl)cc2Cl)c(-c2ccc(Cl)cc2Cl)n1)c1ccccc1 (centres unmarked) [Compound 202],> 10 µM,,0.048 ± 0.0111 µM,,
